The subject of this assay is potato protoplasts (protoplast-derived cells). Kind of assay: Sulfentrazone kill curve with cell suspension and shoot tip-derived protoplasts. Format: cell-based. Conditions: for Microcallus formation: exposed one month; for # Of calli in 3 beads, # / # Of calli in 3 beads, %: Non treated protoplast + PEG; for # Of calli in 3 beads, # / # Of calli in 3 beads, % / # of calli in beads, # / # of calli in beads, %: one month; for # Of calli in 3 beads, % / # of calli in beads, %: relative to 0.0 μM; for # of calli in beads, # / # of calli in beads, %: Stop-GFP + Correcting GRON protoplasts. The protocol: Herbicide selection experiments were performed to determine the concentration of herbicide necessary to kill protoplast derived microcalli in a defined treatment period. […] The herbicide was suspended in DMSO, with the final concentration of DMSO in the herbicide treatments being 1%. Development of cells was evaluated under the microscope once a week. […]
Therefore, new kill curves were initiated with lower concentrations of 0, 0.5, 0.6, 0.7 and 0.8 μM of sulfentrazone, shown in Table 1.3.
About 200 shoot tips of 2-8 week-old in vitro shoots that have been cultured under a regular day/night regime, or, preferably were kept for two days before protoplast isolation in the dark, shoots may be cut into small pieces with a scalpel in a petri dish with sterile water. After all tips have been cut, the water is replaced with protoplast culture medium, preferably BN (B5 Salts and Vitamins (Phytotechnology Laboratories), glucose 20 g/L, mannitol 70 g/L, alpha naphthalene acetic acid 5 mg/L, additional CaCl2×2H2O 600 mg/L, casein hydrolysate 250 mg/L, cystcine-HCL 10 mg/L, polyvinylpyrrolidone (MW 10,000) 5 g/L. After approximately 1-2 h, the protoplast culture medium is replaced with enzyme solution, for example consisting of medium BN, in which 0.5% (w/v) Cellulase YC and 0.75% (w/v) Maccrozyme R10 (both from Karlan Research Products, Cottonwood, Ariz.), 1 g/L bovine serum albumin, and 1 g/L 2-morpholinoethanesulfonic acid are dissolved. The ratio of the number of shoot tips over the volume of enzyme solution can be between 10 and 16, preferably 13. The dish with shoot tip pieces in enzyme solution is incubated for at 25° C.-30° C., preferably 28° C., in darkness on a shaker set to about 50 rpm. After overnight incubation the protoplast suspension is purified using an iodixanol density gradient (adapted from Optiprep Application Sheet C18; Purification of Intact Plant Protoplasts; Axis-Shield USA, 10 Commerce Way, Norton, Mass. 02776). After the density gradient centrifugation, the band with purified protoplasts is removed together with about 5 mL W5 medium (Frigerio et al., 1998). The protoplast density and yield are determined with a hemocytometer. The protoplasts density is adjusted to 1×10^6/mL in BN medium containing 2 mg/L 2,6-dichlorobenzonitrile (cellulose synthase inhibitor), and the protoplasts are cultured in darkness at 30° C. for about 16 h.
1. Fast growing cell suspensions are used, preferably three days after their last subculture. 1.5 mL settled cell volume is transferred to about 15 ml BN medium, which after 2 h is replaced with enzyme solution. 2. The protoplast purification is followed immediately by the GRON/PEG treatment.
The protoplast suspension is mixed with an equal volume of W5 medium, transferred to a 50 mL centrifuge tube, and centrifuged for 10 min at the lowest setting of a clinical centrifuge (about 50×g). The supernatant is removed and replaced with TM medium (Klaus, S. Markerfreie transplastome Tabakpflanzen (Marker-free transplastomic tobacco plants). PhD Dissertation, 2002, Ludwig-Maximilians-Universitát Múnchen, 109 pp), adjusting the protoplast density to 5×10^6/mL. Aliquots of 100 μL containing 5×10^5 protoplasts each are distributed into 12 mL round bottom centrifuge tubes. GRONs (such as those shown in Table 14) targeted at one or more mutations in one or both of the mitochondrial and plastidal PPX genes are then introduced into the protoplasts using a PEG treatment. To introduce the GRONs into the protoplasts, 12.5 μg GRON dissolved in 25 μL purified water and 125 μL of a polyethylene glycol solution (5 g PEG MW 1500, 638 mg mannitol, 207 mg CaNO3×4H2O and 8.75 mL purified water; pH adjusted to about 9.0) is added. After a 10-30 min incubation on ice, the protoplast-PEG suspension is washed with W5 medium and resuspended in medium BN. The suspension is kept overnight in darkness at room temperature.
One day after the GRON introduction, protoplasts are embedded in calcium alginate. […]

The values below come from patent US11111500B2, “Mutated protoporphyrinogen IX oxidase (PPX) genes” (CIBUS US LLC, priority 2010, dated 2021).

Each structure is given as a SMILES string.

Take `Cc1nn(-c2cc(NS(C)(=O)=O)c(Cl)cc2Cl)c(=O)n1C(F)F` [sulfentrazone]: the Microcallus formation runs as follows: (7.8 μM sulfentrazone) “No”; (15.6 μM sulfentrazone) “No”; (31.25 μM sulfentrazone) “No”; (62.5 μM sulfentrazone) “No”. The “# Of calli in 3 beads, #” value runs as follows: (0.5 μM) 45; (0.6 μM) 8; (0.7 μM) 2; (0.8 μM) 0.0. For the same compound, the “# Of calli in 3 beads, %” value is given as 30% (0.5 μM), 6.9% (0.6 μM), 1.7% (0.7 μM) and 0.0% (0.8 μM). For the same compound, the “# of calli in beads, #” value (0.5 μM) is 38; the “# of calli in beads, #” value (0.6 μM) came to 12; the “# of calli in beads, #” value (0.7 μM) is 7; the “# of calli in beads, #” value (0.8 μM) amounted to 0.0. Moreover, the “# of calli in beads, %” value reads like this: (0.5 μM) 30.2%; (0.6 μM) 9.6%; (0.7 μM) 5.6%; (0.8 μM) 0.0%. Besides, the “concentration sufficient to kill all protoplast-derived cells” value (shoot tip-derived protoplasts and cell suspension) was 7.8 µM.
